{"source": "patent US20060194845A1", "about": "“Use of ALK 5 inhibitors to modulate or inhibit myostatin activity leading to increased lean tissue accretion in animals” (Schering Corporation, priority 2004, published 2006)", "test_system": "rats", "assay": "Effect of Compound A on lean and fat tissue content in rats (Molecular Resonance Imaging)", "format": "in vivo, rat", "details": "10 mg/kg in feed", "protocol": "Ten animals were treated with Compound A and a second group of ten animals served as a control group. Baseline values, in grams, of lean and fat tissue were assessed using […] Resonance Imaging technology for all animals."}
{"smiles": "NC(=O)c1ccc(-c2nc(-c3ccc4c(c3)OCO4)c(-c3ccccn3)[nH]2)cc1", "note": "[Compound A]", "values": [{"measurement": "fat content vs control (observation in words)", "result": "slight trend towards decreased fat content"}, {"measurement": "Fat (g) Δ (change in grams of tissue from baseline)", "setting": "21 days", "result": 50.6, "unit": "g"}, {"measurement": "Lean (g) Δ (change in grams of tissue from baseline)", "setting": "21 days", "result": 93.7, "unit": "g"}, {"measurement": "Fat (g) Δ (change in grams of tissue from baseline)", "setting": "39 days", "result": 73.6, "unit": "g"}, {"measurement": "increase in lean tissue compared to the control group", "setting": "39 days, 137.8 vs. 115.3, p<0.0036", "result": 19.6, "unit": "%"}, {"measurement": "Lean (g) Δ (change in grams of tissue from baseline)", "setting": "39 days, p<0.0036 vs control, 10 mg/kg", "result": 137.8, "unit": "g"}]}
